Measured values from paper PMC8287028 (Frontiers in Veterinary Science, 2021).
Values joined by “and” are separate entries in the source; they are usually repeats but may differ in a detail not shown here. Identical values can stand only once.

Assay: Pharmacokinetics after oral apixaban capsules, plasma concentrations by LC/MS
Settings: for AUC: AUC (area-under-the-curve); for Cmax: CMax (peak concentration); for bioavailability: F% (fraction of oral dose absorbed, bioavailability); for half-life: K10 T½ (apparent elimination half-life); for Vd/F: V/F (volume of distribution per fraction absorbed)
Source text: Additionally, drug metabolism might be different in beagles compared with mixed-breed dogs ([33], [34]). […] The study was approved by the Institutional Animal Care and Use Committee (IACUC) at Cornell University College of Veterinary Medicine (Protocol #2019-0099). All dogs were housed at Cornell University and cared for by licensed veterinarians and technicians according to established protocols. All dogs were permanently adopted into private homes after study completion.
To achieve uniform dosing, custom IV (2.5 mg/ml) and oral capsule formulations were created. The protocol for generation of the IV formulation was as previously published ([25]), and all procedures were performed in a laminar flow hood under strict aseptic conditions. […] After vortexing, the formulation was aseptically filtered (Corning 0.22 μm cellulose acetate filter, Millipore-Sigma) then drawn into 10 ml syringes (BD, Franklin Lakes, NJ). The IV formulation was prepared 1 h before administration and stored in the dark at 20-25°C. […] All injection durations were identical. Separately, all dogs received bodyweight appropriate capsule size to provide ~0.2 mg/kg PO once. Capsules were administered without food and witnessed to be ingested. A minimum washout period of 2 weeks elapsed between initial PO administration and subsequent IV administration. The maximum duration of capsule storage prior to administration was 76 days.
On the days of drug administration, 5 Fr × 25 cm trilumen wire-guided catheters (Mila International, Erlanger, KY) were aseptically placed in external jugular veins by modified-Seldinger technique to facilitate atraumatic, repeat blood sample collection. Dogs were sedated with IV butorphanol 0.2 mg/kg and dexmedetomidine 5 μg/kg (Zoetis, Parsippany, NJ) to facilitate catheter placement. Jugular catheters were secured using 3-0 nylon sutures, protected with sterile bandages, and flushed with 0.9% saline (no heparin was used). Dogs were allowed to recover fully from sedation prior to drug administration. […] Catheters were flushed with 0.9% saline, without heparin. Samples were also drawn into K2-EDTA and no-additive tubes at baseline and 24 h post-administration for complete blood counts and serum biochemistry profiles. Dogs were closely monitored for adverse reactions throughout the sample collection period. […] After each sample collection, one citrate anticoagulated whole blood sample was analyzed using thromboelastography (TEG), while the second citrate sample was centrifuged (1,370 g, 10 min, 20°C), the plasma separated, split into two aliquots and then frozen at −80°C pending batch analyses.
In brief, proteins in the sample were initially precipitated by combining 100 μl of plasma sample with 200 μl of 0.1 M ZnSO4 solution and 700 μl of isotope standard stock solution, mixing in a vortex device for 5 s followed by centrifugation (14,000 g, 5 min, RT). The supernatant was added to glass autosampler vials and an aliquot injected into the liquid chromatography 2D UPLC system (Waters Acquity UPLC H-class with 2D Technology System). Sample extraction was performed using a 2.1 × 30 mm reverse phase cartridge (column 1, Waters, XBridge C8, 10 μm) followed by an analytical separation on a 2.1 × 50 mm reverse phase column (column 2, Waters, Acquity UPLC BEH C18, 1.7 μm) and an elution with a linear gradient using water containing 0.1% formic acid and 2 mmol/L ammonium acetate and methanol containing 0.1% formic acid and 2 mmol/L ammonium acetate. […] A 10-point calibration curve was generated with concentrations ranging from 1 to 1,000 ng/ml, with three quality control samples at each of three concentrations (low, 2.5 ng/ml; medium, 50 ng/ml; high, 500 ng/ml).
Where C is the plasma drug concentration, V is the volume of distribution, D is the dose, K10 is the first order elimination rate constant, and T is time. Secondary parameters included area-under-the curve (AUC), systemic clearance (CL), and half-life.

[1] = both, mixed-breed, dog, plasma, po, 0.2 mg/kg, dogs, mean dose 0.2 mg/kg, geometric mean, n = 5
[2] = both, mixed-breed, dog, plasma, po, 0.2 mg/kg, dogs, mean dose 0.2 mg/kg, mean, n = 5
[3] = dogs, PO, mean dose 0.2 mg/kg, model fit, individual dogs (Dog 1-5), 0.2 mg/kg
[4] = dogs, PO, mean dose 0.2 mg/kg, geometric mean, n = 5
[5] = dogs, PO, mean dose 0.2 mg/kg, individual dogs (Dog 1-5), 0.2 mg/kg
[6] = dogs, PO, mean dose 0.2 mg/kg, mean, n = 5

COc1ccc(-n2nc(C(N)=O)c3c2C(=O)N(c2ccc(N4CCCCC4=O)cc2)CC3)cc1 [apixaban]
mean maximum observed plasma concentration (CMax) (both, mixed-breed, dog, in vivo, po): 176 ± 126 ng/mL
CL/F (both, mixed-breed, dog, in vivo, po, 0.2 mg/kg): 1.88 mL/min/kg
AUC [1]: 1770 ng·h/mL
AUC [2]: 1950 ng·h/mL
CL/F (both, mixed-breed, dog, plasma, po, 0.2 mg/kg, CL/F (systemic clearance per fraction absorbed), dogs, mean dose 0.2 mg/kg, mean, n = 5): 2.08 mL/min/kg
Cmax (both, mixed-breed, dog, plasma, po, 0.2 mg/kg, dogs, mean dose 0.2 mg/kg, model fit, geometric mean, n = 5): 196 ng/mL
Cmax (both, mixed-breed, dog, plasma, po, 0.2 mg/kg, dogs, mean dose 0.2 mg/kg, model fit, mean, n = 5): 223 ng/mL
bioavailability (both, mixed-breed, dog, plasma, po, 0.2 mg/kg, dogs, PO 0.2 mg/kg vs IV 0.18 mg/kg, geometric mean, n = 5): 24.1%
bioavailability (both, mixed-breed, dog, plasma, po, 0.2 mg/kg, dogs, PO 0.2 mg/kg vs IV 0.18 mg/kg, mean, n = 5): 28.4%
half-life [1]: 3 h
half-life (both, mixed-breed, dog, plasma, po, 0.2 mg/kg, dogs, mean dose 0.2 mg/kg, individual dogs (Dog 1-5)): 3.8 h
half-life [2]: 3.1 h
TMax (both, mixed-breed, dog, plasma, po, 0.2 mg/kg, TMax, dogs, mean dose 0.2 mg/kg, model fit, geometric mean, n = 5): 5 h
TMax (both, mixed-breed, dog, plasma, po, 0.2 mg/kg, TMax, dogs, mean dose 0.2 mg/kg, model fit, individual dogs (Dog 1-5)): 3.5 h
Vd/F [1]: 0.492 L/kg
Vd/F [2]: 0.534 L/kg
F% (fraction of oral dose absorbed, bioavailability) (dogs, PO 0.2 mg/kg vs IV 0.18 mg/kg, individual dogs (Dog 1-5)): 35.0% and 51.5% and 15.0% and 10.0% and 30.4%
residual plasma concentrations (dogs, PO 0.2 mg/kg, quantifiable at the 24-h time point): declined to below the level of quantitation by the 30-h time point
AUC (area-under-the-curve) (dogs, PO capsule, mean dose 0.2 mg/kg, fasted, individual dogs (Dog 1-5), 0.2 mg/kg): 2,082.4 h*ng/ml and 2,396.3 h*ng/ml and 1,335.5 h*ng/ml and 863.4 h*ng/ml and 3,051.2 h*ng/ml
CMax (peak concentration) [3]: 236.2 ng/mL and 294.3 ng/mL and 165.1 ng/mL and 71.4 ng/mL and 348.5 ng/mL
TMax [3]: 4.4 h and 4.9 h and 6.3 h and 6.1 h
TMax (time to CMax) (dogs, PO, mean dose 0.2 mg/kg, model fit, mean, n = 5, 0.2 mg/kg): 5 h
K01 (first order absorption rate) [4]: 0.4 h⁻¹
K10 (first order elimination rate) [4]: 0.2 h⁻¹
TLag (lag time for capsule dissolution and stomach emptying) [4]: 1.8 h
CL/F (systemic clearance per fraction absorbed) [5]: 1.64 mL/min/kg and 1.33 mL/min/kg and 2.597 mL/min/kg and 3.668 mL/min/kg and 1.15 mL/min/kg
K01 (first order absorption rate) [5]: 0.7 h⁻¹ and 0.5 h⁻¹ and 0.3 h⁻¹ and 0.2 h⁻¹ and 0.6 h⁻¹
K10 (first order elimination rate) [5]: 0.2 1/h (4×) and 0.3 1/h
TLag (lag time for capsule dissolution and stomach emptying) [5]: 0.9 h and 1.6 h and 1.9 h and 1.8 h and 3.4 h
V/F (volume of distribution per fraction absorbed) [5]: 0.5407 L/kg and 0.3267 L/kg and 0.4659 L/kg and 0.9747 L/kg and 0.3612 L/kg
K01 (first order absorption rate) [6]: 0.5 h⁻¹
K10 (first order elimination rate) [6]: 0.2 h⁻¹
TLag (lag time for capsule dissolution and stomach emptying) (dogs, PO, mean dose 0.2 mg/kg, mean, n = 5, 0.2 mg/kg): 2 h and 2.0 h
time of mean maximum observed plasma concentration (dogs, single oral dose 0.20 mg/kg, post-dosing, observed): 6 h
